This is an account of results in patent publication US5023240A, “Derivatives of tylosin and 10,11,12,13-tetrahydro tylosin and their use in pharmaceuticals” (Sour Pliva, priority 1987, dated 1991).

Holding throughout (assay type): cell-based
For experiment [1], the system named is Strep. pneumoniae. In words: antimicrobial activity, MIC by agar dilution method, Strep. pneumoniae. The settings on record: 3 test strains, MIC refers to over 90% of tested strains; for MIC90: Streptococcus pneumoniae, read-out: Minimal Inhibitory Concentration. Also on record: key to Minimal Inhibitory Concentration: R: resistant. The method, then:
(§1) The antimicrobial activity of some compounds of the present invention was tested on the laboratory strain Sarcina lutea and on 50 various strains isolated from fresh patients' samples. The minimal inhibitory concentration (MIC) was determined by the agar dilution method as described by M. D. Finegold and J. W. Martin, Diagnostic Microbiology, Mosby Comp., St. Louis 1982, p. 536-540.

Experiment [2] relates to Strep. faecalis. In words: antimicrobial activity, MIC by agar dilution method, Strep. faecalis. The settings on record: 17 test strains, MIC refers to over 90% of tested strains; for MIC90: Enterococcus faecalis, read-out: Minimal Inhibitory Concentration. Also on record: key to Minimal Inhibitory Concentration: R: resistant. The method, then: as §1
For experiment [3], the system named is Strep. agalact. In words: antimicrobial activity, MIC by agar dilution method, Strep. agalact. More on the design: key to Minimal Inhibitory Concentration: R: resistant. The settings on record: 2 test strains, MIC refers to over 90% of tested strains; for MIC90: read-out: Minimal Inhibitory Concentration. The method, then: as §1
The test system of experiment [4] is Staph. aureus. In words: antimicrobial activity, MIC by agar dilution method, Staph. aureus. Also on record: key to Minimal Inhibitory Concentration: R: resistant. To be noted: 13 test strains, MIC refers to over 90% of tested strains; for MIC90: Staphylococcus aureus, read-out: Minimal Inhibitory Concentration. The protocol:
as §1

Experiment [5] has as its system Staph. saproph. In words: antimicrobial activity, MIC by agar dilution method, Staph. saproph. More on the design: key to Minimal Inhibitory Concentration: R: resistant. To be noted: 6 test strains, MIC refers to over 90% of tested strains; for MIC90: read-out: Minimal Inhibitory Concentration. The method, then: as §1
In experiment [6] the test system is Sarcina lutea. In words: antimicrobial activity, MIC by agar dilution method, Sarcina lutea. The settings on record: Micrococcus luteus, 4 test strains, MIC refers to over 90% of tested strains, read-out: Minimal Inhibitory Concentration. The method, then: as §1

The structures appear in SMILES notation. Values after ≈ are worked out from the molar mass of the structure shown.

With `CCC1OC(=O)CC(O)C(C)C(OC2OC(C)C(OC3CC(C)(O)C(O)C(C)O3)C(N(C)C)C2O)C(CC=NO)CC(C)C(=O)C=CC(C)=CC1COC1OC(C)C(O)C(OC)C1OC` (centres unmarked) [XII, Tylosin aldoxime], the MIC90 in experiment [1] was 0.5 mg/L (≈ 0.537 µM); in experiment [2], 1 to 4 mg/L (≈ 1.07 to 4.3 µM); in experiment [3], 0.5 mg/L (≈ 0.537 µM); in experiment [4], 1 to 4 mg/L (≈ 1.07 to 4.3 µM); in experiment [5], 0.5 to 2 mg/L (≈ 0.537 to 2.15 µM); in experiment [6], 0.5 mg/L (≈ 0.537 µM).

`CCC1OC(=O)CC(O)C(C)C(OC2OC(C)C(OC3CC(C)(O)C(O)C(C)O3)C(N(C)C)C2O)C(CC=O)CC(C)C(=O)CCC(C)CC1COC1OC(C)C(O)C(OC)C1OC` (centres unmarked) [II, 10,11,12,13-tetrahydro tylosin]: the MIC90 was 0.5 mg/L (≈ 0.543 µM) in experiment [1]; 4 to 8 mg/L (≈ 4.35 to 8.69 µM) in experiment [2]; 1 to 2 mg/L (≈ 1.09 to 2.17 µM) in experiment [3]; 2 to 4 mg/L (≈ 2.17 to 4.35 µM) in experiment [4]; 1 to 2 mg/L (≈ 1.09 to 2.17 µM) in experiment [5]; 0.5 mg/L (≈ 0.543 µM) in experiment [6].

In the case of `CCC1OC(=O)CC(O)C(C)C(OC2OC(C)C(OC3CC(C)(O)C(O)C(C)O3)C(N(C)C)C2O)C(CCO)CC(C)C(=O)C=CC(C)=CC1COC1OC(C)C(O)C(OC)C1OC` (centres unmarked) [Ia, 20-deoxo-20-hydroxy tylosin, reference compound], the MIC90 is 0.5 to 1 mg/L (≈ 0.545 to 1.09 µM) in experiment [1]; 64 mg/L (≈ 69.7 µM) in experiment [2]; 16 mg/L (≈ 17.4 µM) in experiment [3]; 4 to 16 mg/L (≈ 4.36 to 17.4 µM) in experiment [4]; 1 to 16 mg/L (≈ 1.09 to 17.4 µM) in experiment [5]; 1 mg/L (≈ 1.09 µM) in experiment [6].

`CCC1OC(=O)CC(O)C(C)C(OC2OC(C)C(OC3CC(C)(O)C(O)C(C)O3)C(N(C)C)C2O)C(CCO)CC(C)C(=O)CCC(C)CC1COC1OC(C)C(O)C(OC)C1OC` (centres unmarked) [III, 10,11,12,13-tetrahydro relomycin]: the “Minimal Inhibitory Concentration” value in experiment [1], in experiment [2], in experiment [3] and in experiment [5] was “R” throughout. For the same compound, the figures for the MIC90 in experiment [4] and in experiment [6] were 32 mg/L (≈ 34.7 µM) and 1 mg/L (≈ 1.08 µM), respectively.

In the case of `CCC1OC(=O)CC(O)C(C)C(OC2OC(C)C(OC3CC(C)(O)C(O)C(C)O3)C(N(C)C)C2O)C(CC=O)CC(C)C(O)CCC(C)CC1COC1OC(C)C(O)C(OC)C1OC` (centres unmarked) [VI, 9-deoxo-9-hydroxy-10,11,12,13-tetrahydro tylosin], the MIC90 in experiment [1] was 0.5 mg/L (≈ 0.542 µM); in experiment [2], 8 to 32 mg/L (≈ 8.68 to 34.7 µM); in experiment [3], 2 to 8 mg/L (≈ 2.17 to 8.68 µM); in experiment [4], 4 mg/L (≈ 4.34 µM); in experiment [5], 2 to 4 mg/L (≈ 2.17 to 4.34 µM); in experiment [6] it was 0.5 mg/L (≈ 0.542 µM).

Consider `CCC1OC(=O)CC(O)C(C)C(OC2OC(C)C(OC3CC(C)(O)C(O)C(C)O3)C(N(C)C)C2O)C(CC=NO)CC(C)C(=NO)CCC(C)CC1COC1OC(C)C(O)C(OC)C1OC` (centres unmarked) [XX, 10,11,12,13tetrahydro tylosin dioxime], for which the MIC90 was 2 to 4 mg/L (≈ 2.1 to 4.21 µM) in experiment [1], 16 to 32 mg/L (≈ 16.8 to 33.7 µM) in experiment [4], 16 mg/L (≈ 16.8 µM) in experiment [5] and 1 mg/L (≈ 1.05 µM) in experiment [6].

As to `CCC1OC(=O)CC(O)C(C)C(OC2OC(C)C(OC3CC(C)(O)C(O)C(C)O3)C(N(C)C)C2O)C(CCO)CC(C)C(=NO)CCC(C)CC1COC1OC(C)C(O)C(OC)C1OC` (centres unmarked) [XXIII, 10,11,12,13-tetrahydro relomycin oxime], the MIC90 in experiment [1] amounted to 64 mg/L (≈ 68.3 µM); in experiment [6], 0.5 mg/L (≈ 0.534 µM). Moreover, the “Minimal Inhibitory Concentration” value in experiment [2], in experiment [3], in experiment [4] and in experiment [5] was “R” each time.

For the compound `CCC1OC(=O)CC(O)C(C)C(OC2OC(C)C(OC3CC(C)(O)C(O)C(C)O3)C(N(C)C)C2O)C(CCO)CC(C)C(=NO)C=CC(C)=CC1COC1OC(C)C(O)C(OC)C1OC` (centres unmarked) [XVIII, relomycin oxime], the MIC90 was 0.5 mg/L (≈ 0.536 µM) in experiment [1]; 64 mg/L (≈ 68.6 µM) in experiment [3]; 64 mg/L (≈ 68.6 µM) in experiment [4]; 4 to 16 mg/L (≈ 4.29 to 17.1 µM) in experiment [5]; 0.5 mg/L (≈ 0.536 µM) in experiment [6]. The “Minimal Inhibitory Concentration” value in experiment [2] is given as “R”.

Regarding `CCC1OC(=O)CC(O)C(C)C(OC2OC(C)C(OC3CC(C)(O)C(O)C(C)O3)C(N(C)C)C2O)C(CC=NO)CC(C)C(=O)CCC(C)CC1COC1OC(C)C(O)C(OC)C1OC` (centres unmarked) [XIX, 10,11,12,13-tetrahydro tylosin aldoxime], the MIC90 is 1 mg/L (≈ 1.07 µM) in experiment [1], 8 to 16 mg/L (≈ 8.55 to 17.1 µM) in experiment [4], 8 mg/L (≈ 8.55 µM) in experiment [5] and 0.5 mg/L (≈ 0.535 µM) in experiment [6].
